In patent US12679848B2, “Plasma kallikrein inhibitors” (Merck Sharp & Dohme LLC, priority 2020, dated 2026):

Assays:
[1] = biological target: human factor XIa (Homo sapiens, UniProt P03951); assay: Factor XIa Assay; format: biochemical; conditions: human factor XIa 0.04 nM, substrate GPR-AFC, 30 min pre-incubation, 25° C., pH 7.4; read-out: FXIa IC50
[2] = biological target: T1, Human plasma kallikrein (Homo sapiens, UniProt P03952); assay: Plasma Kallikrein Assay; format: biochemical; conditions: purified Human plasma kallikrein 0.5 nM, substrate Acetyl-K-P-R-AFC, HEPES pH 7.4; read-out: PKal IC50
T1 construct: yields a heavy chain (371 amino acids) and a light chain (248 amino acids); The active site of plasma kallikrein is contained in the light chain; purchased Enzyme Research Laboratories
Summary of the method: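 Purified human plasma kallikrein at 0.5 nM final with substrate Acetyl-K-P-R-AFC at […], in 50 mM HEPES pH 7.4, 150 mM NaCl, 5 mM CaCl2, 0.1% PEG 8000, at rt or 37° C after enzyme-inhibitor equilibration. IC50 from four-parameter logistic fit of fluorescence rate; Ki via Cheng-Prusoff.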

Chain of human factor XIa (P03951 388-625 limits assumed): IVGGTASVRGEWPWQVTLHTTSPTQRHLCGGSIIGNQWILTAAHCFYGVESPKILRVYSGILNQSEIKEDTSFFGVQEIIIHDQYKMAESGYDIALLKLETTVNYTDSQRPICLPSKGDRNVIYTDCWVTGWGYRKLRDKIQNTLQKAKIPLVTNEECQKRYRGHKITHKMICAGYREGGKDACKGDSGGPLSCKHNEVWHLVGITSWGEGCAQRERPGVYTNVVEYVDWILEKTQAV
Chain of human factor XIa (P03951 19-387 partner limits assumed): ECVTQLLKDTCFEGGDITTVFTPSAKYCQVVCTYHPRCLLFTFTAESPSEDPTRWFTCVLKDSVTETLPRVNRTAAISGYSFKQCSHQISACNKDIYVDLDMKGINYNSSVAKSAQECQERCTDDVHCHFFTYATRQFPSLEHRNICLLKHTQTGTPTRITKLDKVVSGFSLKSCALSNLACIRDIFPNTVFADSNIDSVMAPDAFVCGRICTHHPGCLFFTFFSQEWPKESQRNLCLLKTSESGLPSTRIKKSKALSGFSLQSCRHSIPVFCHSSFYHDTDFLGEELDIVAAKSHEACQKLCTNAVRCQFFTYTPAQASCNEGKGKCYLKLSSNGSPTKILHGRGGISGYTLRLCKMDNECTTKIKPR
T1 sequence (P03952 391-638 limits assumed): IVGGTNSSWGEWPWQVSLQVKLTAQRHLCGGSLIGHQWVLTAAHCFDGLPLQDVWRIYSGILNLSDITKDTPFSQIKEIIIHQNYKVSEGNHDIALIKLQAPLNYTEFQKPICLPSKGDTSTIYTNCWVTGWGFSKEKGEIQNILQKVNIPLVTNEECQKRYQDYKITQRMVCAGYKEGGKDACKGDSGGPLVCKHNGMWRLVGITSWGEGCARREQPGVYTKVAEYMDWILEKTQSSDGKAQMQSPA
T1 sequence (P03952 20-390 partner limits assumed): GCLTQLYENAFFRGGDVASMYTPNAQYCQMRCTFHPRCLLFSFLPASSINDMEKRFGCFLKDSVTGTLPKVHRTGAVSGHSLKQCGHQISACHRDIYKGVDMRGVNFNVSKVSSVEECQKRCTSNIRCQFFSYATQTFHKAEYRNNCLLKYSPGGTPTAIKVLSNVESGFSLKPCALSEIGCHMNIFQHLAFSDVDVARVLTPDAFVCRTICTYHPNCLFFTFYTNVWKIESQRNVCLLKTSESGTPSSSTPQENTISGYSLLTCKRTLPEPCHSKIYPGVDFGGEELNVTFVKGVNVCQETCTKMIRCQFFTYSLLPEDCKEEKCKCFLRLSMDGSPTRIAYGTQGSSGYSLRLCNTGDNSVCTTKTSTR

SMILES | IC50 [1] | IC50 [2]
Cn1c(-c2ccccc2)nnc1-n1ncc(C(=O)N2CCC[C@@]3(C2)OC(=O)Nc2ccc(Cl)c(F)c23)c1N [Example 30, (R)-1'-(5-Amino-1-(4-methyl-5-phenyl-4H-1,2,4-triazol-3-y1)-1H-pyrazole-4-carbonyl)-6-chloro-5-fluorospiro[benzo[d][1,3]oxazine-4,3'-piperidin]-2(1H)-one] | 2830 nM | 18.4 nM
Nc1c(C(=O)N2CCC[C@@]3(C2)OC(=O)Nc2ccc(Cl)c(F)c23)cnn1Cc1ccncc1 [Example 32, (R)-1'-(5-Amino-1-(pyridin-4-ylmethyl)-1H-pyrazole-4-carbonyl)-6-chloro-5-fluorospiro[benzo[d][1,3]oxazine-4,3'-piperidin]-2(1H)-one] | 268 nM | 1.7 nM
Nc1c(C(=O)N2CCC[C@@]3(C2)OC(=O)Nc2ccc(Cl)c(F)c23)cnn1Cc1ccc(F)c(F)c1 [Example 33, (R)-1'-(5-Amino-1-(3,4-difluorobenzy1)-1H-pyrazole-4-carbonyl)-6-chloro-5-fluorospiro[benzo[d][1,3]oxazine-4,3'-piperidin]-2(1H)-one] | 438 nM | 1 nM
CC(C)n1ncc(C(=O)N2CCC[C@@]3(C2)OC(=O)Nc2ccc(Cl)c(F)c23)c1N [Example 34, (R)-1'-(5-Amino-1-isopropyl-1H-pyrazole-4-carbonyl)-6-chloro-5-fluorospiro[benzo[d][1,3]oxazine-4,3'-piperidin]-2(1H)-one] | 1200 nM | 8.9 nM
Nc1c(C(=O)N2CCC[C@@]3(C2)OC(=O)Nc2ccc(Cl)c(F)c23)cnn1CCOc1ccc(Cl)cc1 [Example 37, (R)-1'-(5-Amino-1-(2-(4-chlorophenoxy)ethyl)-1H-pyrazole-4-carbonyl)-6-chloro-5-fluorospiro[benzo[d][1,3]oxazine-4,3'-piperidin]-2(1H)-one] | 4600 nM | 10.5 nM
COc1cccc(Cn2ncc(C(=O)N3CCC[C@@]4(C3)OC(=O)Nc3ccc(Cl)c(F)c34)c2N)c1 [Example 39, (R)-1'-(5-Amino-1-(3-methoxybenzyl)-1H-pyrazole-4-carbonyl)-6-chloro-5-fluorospiro[benzo[d][1,3]oxazine-4,3'-piperidin]-2(1H)-one] | 293 nM | 1.2 nM

More lines, now with the values ahead:

IC50 [1] | IC50 [2] | SMILES
1080 nM | 15.7 nM | Nc1c(C(=O)N2CCC[C@@]3(C2)OC(=O)Nc2ccc(Cl)c(F)c23)cnn1C1CCCCC1 [Example 35, (R)-1'-(5-Amino-1-cyclohexyl-1H-pyrazole-4-carbonyl)-6-chloro-5-fluorospiro[benzo[d][1,3]oxazine-4,3'-piperidin]-2(1H)-one]
140 nM | 2 nM | Nc1c(C(=O)N2CCC[C@@]3(C2)OC(=O)Nc2ccc(Cl)c(F)c23)cnn1CC1CCCCC1 [Example 36, (R)-1'-(5-Amino-1-(cyclohexylmethyl)-1H-pyrazole-4-carbonyl)-6-chloro-5-fluorospiro[benzo[d][1,3]oxazine-4,3'-piperidin]-2(1H)-one]
449 nM | 2.4 nM | Nc1c(C(=O)N2CCC[C@@]3(C2)OC(=O)Nc2ccc(Cl)c(F)c23)cnn1C1Cc2ccccc2C1 [Example 38, (R)-1'-(5-Amino-1-(2,3-dihydro-1H-inden-2-yl)-1H-pyrazole-4-carbonyl)-6-chloro-5-fluorospiro[benzo[d][1,3]oxazine-4,3'-piperidin]-2(1H)-one]
249 nM | 2.3 nM | COc1ccccc1Cn1ncc(C(=O)N2CCC[C@@]3(C2)OC(=O)Nc2ccc(Cl)c(F)c23)c1N [Example 40, (R)-1'-(5-Amino-1-(2-methoxybenzyl)-1H-pyrazole-4-carbonyl)-6-chloro-5-fluorospiro[benzo[d][1,3]oxazine-4,3'-piperidin]-2(1H)-one]
746 nM | 11.4 nM | CN(C)c1ccccc1Cn1ncc(C(=O)N2CCC[C@@]3(C2)OC(=O)Nc2ccc(Cl)c(F)c23)c1N [Example 41, (R)-1'-(5-Amino-1-(2-(dimethylamino)benzyl)-1H-pyrazole-4-carbonyl)-6-chloro-5-fluorospiro[benzo[d][1,3]oxazine-4,3'-piperidin]-2(1H)-one]
